Measurements as given in US20090041818A1, “ANTIVIRAL AGENT, AND FABRIC AND ANTIVIRAL MEMBER […] AGENT” (priority 2003, published 2009).

Tested on: influenza type A virus, Cygnus columbianus/Shimane/499/83 (H5N3) (avian strain)

## [O]=[Ca] [Sample 1, calcium oxide]
  antiviral effect (in words, comparison of samples): high antiviral effect
